Columns and labels:
[1] = target: T1, cow milk-derived xanthine oxidase (XOD) (Bos taurus, UniProt P80457); assay: Xanthine oxidase inhibition activity (inhibition of uric acid formation); format: biochemical; details: for IC50: xanthine 100 μM, XOD 10 mU/mL, 50 mM phosphate buffer pH 7.4, room temperature 15 minutes, O.D. 292 nm; for xanthine oxidase inhibition activity compared with allopurinol: in words, versus allopurinol
T1 construct: cow milk-derived xanthine oxidase (XOD) (10 mU/mL); from tissue; host or cells: cow milk
Protocol: In a 50 mM phosphate buffer (pH 7.4), xanthine (100 μM), cow milk-derived xanthine oxidase (XOD) (10 mU/mL), and a test compound were mixed and the mixture was incubated at room temperature for 15 minutes.

[2] = rats; cited from earlier work
[3] = patients administered allopurinol; cited from earlier work

T1 sequence (P80457 whole entry): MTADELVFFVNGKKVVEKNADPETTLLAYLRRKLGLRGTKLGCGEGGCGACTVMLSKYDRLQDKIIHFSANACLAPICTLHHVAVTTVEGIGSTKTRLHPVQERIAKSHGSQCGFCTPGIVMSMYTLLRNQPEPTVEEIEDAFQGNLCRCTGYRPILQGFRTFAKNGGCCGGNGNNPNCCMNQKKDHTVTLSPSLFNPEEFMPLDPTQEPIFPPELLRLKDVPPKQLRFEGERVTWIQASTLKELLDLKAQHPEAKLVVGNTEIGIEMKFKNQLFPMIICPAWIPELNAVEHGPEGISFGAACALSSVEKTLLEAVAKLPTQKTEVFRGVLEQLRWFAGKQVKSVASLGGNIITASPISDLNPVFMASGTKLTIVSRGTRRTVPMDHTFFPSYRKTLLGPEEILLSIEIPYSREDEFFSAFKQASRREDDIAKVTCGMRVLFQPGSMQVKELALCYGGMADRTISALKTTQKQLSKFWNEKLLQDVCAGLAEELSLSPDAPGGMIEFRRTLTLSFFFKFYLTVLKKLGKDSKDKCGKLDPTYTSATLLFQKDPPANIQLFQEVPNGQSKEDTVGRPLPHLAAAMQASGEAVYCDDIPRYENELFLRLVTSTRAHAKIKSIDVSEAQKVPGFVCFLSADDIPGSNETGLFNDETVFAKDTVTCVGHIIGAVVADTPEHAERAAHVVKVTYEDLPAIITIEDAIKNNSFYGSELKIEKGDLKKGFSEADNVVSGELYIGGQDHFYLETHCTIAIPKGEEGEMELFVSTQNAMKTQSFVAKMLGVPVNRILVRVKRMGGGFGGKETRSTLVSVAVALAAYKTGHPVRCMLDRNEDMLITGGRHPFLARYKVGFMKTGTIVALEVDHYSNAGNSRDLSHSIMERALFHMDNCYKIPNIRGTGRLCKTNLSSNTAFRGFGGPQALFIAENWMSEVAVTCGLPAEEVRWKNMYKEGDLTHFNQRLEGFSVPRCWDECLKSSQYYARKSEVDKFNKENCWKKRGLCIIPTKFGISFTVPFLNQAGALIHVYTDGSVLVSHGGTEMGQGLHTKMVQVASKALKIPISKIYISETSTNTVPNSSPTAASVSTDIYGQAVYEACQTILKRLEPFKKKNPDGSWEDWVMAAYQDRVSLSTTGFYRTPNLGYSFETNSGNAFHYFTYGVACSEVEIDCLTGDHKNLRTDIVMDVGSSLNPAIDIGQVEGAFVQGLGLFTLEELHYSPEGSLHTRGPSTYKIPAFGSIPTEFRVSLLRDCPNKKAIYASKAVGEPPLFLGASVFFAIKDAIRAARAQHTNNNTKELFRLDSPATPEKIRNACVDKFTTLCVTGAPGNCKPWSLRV

Compound | IC50 [1] [nM] | melting point [°C] | further results
Cc1nc(-c2ccc(OCC(C)C)c(C#N)c2)sc1C(=O)O [Febuxostat] | – | – | excreted through non-renal excretion pathways [2]: about 50%
O=c1nc(NN=Cc2ccc(Cl)cc2)c2[nH]c(-c3ccccc3)nc2[nH]1 [I-35] | > 10000 | > 330 | –
O=c1nc(NN=Cc2ccc([N+](=O)[O-])cc2)c2[nH]cnc2[nH]1 [I-4] | 45 | – | –
COc1ccc(C=NNc2nc(=O)[nH]c3nc[nH]c23)cc1 [I-5] | 57 | – | –
Cc1ccc(C=NNc2nc(=O)[nH]c3nc(-c4ccccc4)[nH]c23)cc1 [I-36] | > 10000 | 321 | –
O=c1nc(NN=Cc2ccc(O)c(O)c2O)c2[nH]cnc2[nH]1 [I-13] | 1480 | > 300 | –
CN(N=Cc1ccc(F)cc1)c1nc(=O)[nH]c2nc[nH]c12 [I-17] | 116 | – | –
O=c1nc(NN=Cc2ccccc2)c2[nH]c(-c3ccccc3)nc2[nH]1 [I-34] | > 10000 | 318 | –
COc1cc(C=NN(C)c2nc(=O)[nH]c3nc[nH]c23)cc(OC)c1OC [I-20] | > 10000 | > 300 | –
Cc1ccc(C=NNc2nc(=O)[nH]c3nc[nH]c23)cc1 [I-10] | 20 | > 300 | –
O=c1nc(NN=Cc2ccc(O)c(O)c2)c2[nH]cnc2[nH]1 [I-12] | 349 | > 300 | –
COc1ccc(C=NNc2nc(=O)[nH]c3nc(-c4ccccc4)[nH]c23)cc1 [I-37] | 9210 | 314 | xanthine oxidase inhibition activity compared with allopurinol [1]: higher xanthine oxidase inhibition activity than allopurinol
O=c1nc(NN=Cc2ccc(Cl)cc2)c2[nH]cnc2[nH]1 [I-2] | 25 | – | –
O=c1nc(NN=Cc2ccc(O)cc2)c2[nH]cnc2[nH]1 [I-7] | 45 | – | –
CN(N=Cc1ccc(O)c(O)c1O)c1nc(=O)[nH]c2nc[nH]c12 [I-22] | > 10000 | > 300 | –
CCCCCCCC=NN(C)c1nc(=O)[nH]c2nc[nH]c12 [I-19, 6-(1-methyl-2-n-octylidenehydrazino)-7H-purin-2(3H)-one] | > 10000 | 248 | –

Compound | IC50 [1] [nM] | melting point [°C] | further results
CN(N=Cc1ccc(O)c(O)c1)c1nc(=O)[nH]c2nc[nH]c12 [I-21] | > 10000 | > 300 | –
COc1cc(C=NNc2nc(=O)[nH]c3nc[nH]c23)cc(OC)c1OC [I-11] | 208 | – | –
O=c1nc(NN=Cc2ccc3c(c2)OCO3)c2[nH]cnc2[nH]1 [I-6] | 63 | – | –
Cc1nc2[nH]c(=O)nc(NN=Cc3ccc([N+](=O)[O-])cc3)c2[nH]1 [I-33, 8-methyl-6-(4-nitrobenzylidenehydrazino)-7H-purin-2(3H)-one] | – | > 330 | –
CN(C)c1ccc(C=NNc2nc(=O)[nH]c3nc[nH]c23)cc1 [I-3] | 75 | – | –
Oc1ncnc2[nH]ncc12 [allopurinol] | – | – | patients suffering from side effects (severe skin disorders, hypersensitivity vasculitis) [3]: three to five
O=c1nc(NN=Cc2ccccc2)c2[nH]cnc2[nH]1 [I-9] | 50 | 300 | –
CN(N=Cc1ccc(O)cc1)c1nc(=O)[nH]c2nc[nH]c12 [I-18] | 93 | – | –
O=c1nc(NN=Cc2ccc([N+](=O)[O-])cc2)c2[nH]c(-c3ccccc3)nc2[nH]1 [I-38, 6-(4-nitrobenzylidenehydrazino)-8-phenyl-7H-purin-2(3H)-one] | 4480 | > 330 | xanthine oxidase inhibition activity compared with allopurinol [1]: higher xanthine oxidase inhibition activity than allopurinol
O=c1nc(NN=Cc2ccc([N+](=O)[O-])cc2)c2[nH]c(-c3ccc(Cl)cc3)nc2[nH]1 [I-43, 8-(4-chlorophenyl)-6-(4-nitrobenzylidenehydrazino)-7H-purin-2(3H)-one] | – | 229 | –
O=c1nc(NN=Cc2ccc(F)cc2)c2[nH]cnc2[nH]1 [I-1] | 38 | – | –
COc1ccc(C=NN(C)c2nc(=O)[nH]c3nc[nH]c23)cc1 [I-16] | 76 | – | –
COc1ccccc1C=NN(C)c1nc(=O)[nH]c2nc[nH]c12 [I-14] | 79 | – | –
CCCCCCCC=NNc1nc(=O)[nH]c2nc[nH]c12 [I-8, 6-n-octylidenehydrazino-7H-purin-2(3H)-one] | 2020 | 190 | –
COc1cccc(C=NN(C)c2nc(=O)[nH]c3nc[nH]c23)c1 [I-15] | 100 | – | –

The next lines start with results.

IC50 [1] [nM] | melting point [°C] | Compound | further results
130 | 288 | COc1ccc(-c2nc3c4[nH]cnc4[nH]c(=O)n3n2)cc1 [II-5] | –
2010 | > 283 | COc1cc(-c2nc3c4[nH]cnc4[nH]c(=O)n3n2)cc(OC)c1OC [II-9] | –
2570 | > 300 | O=c1[nH]c2nc[nH]c2c2nc(-c3ccccc3)nn12 [II-3] | –
> 10000 | 277 | Cc1nc2c3[nH]cnc3[nH]c(=O)n2n1 [II-2] | –
1480 | > 285 | O=c1[nH]c2nc[nH]c2c2nc(-c3ccc(O)c(O)c3)nn12 [II-10] | –
4270 | > 300 | O=c1[nH]c2nc[nH]c2c2nc(-c3ccc([N+](=O)[O-])cc3)nn12 [II-8] | –
> 10000 | > 330 | Cc1nc2[nH]c(=O)n3nc(-c4ccc([N+](=O)[O-])cc4)nc3c2[nH]1 [II-24] | –
> 10000 | 262 | O=c1[nH]c2nc[nH]c2c2ncnn12 [II-1] | –
66 | 285 | O=c1[nH]c2nc[nH]c2c2nc(-c3ccc(Cl)cc3)nn12 [II-4] | –
> 10000 | > 330 | Cn1cnc2c1c1nc(-c3ccc([N+](=O)[O-])cc3)nn1c(=O)n2C [II-17] | –
1090 | > 330 | O=c1[nH]c2nc(-c3ccc(Cl)cc3)[nH]c2c2ncnn12 [II-32] | xanthine oxidase inhibition activity compared with allopurinol [1]: higher xanthine oxidase inhibition activity than allopurinol
9200 | > 270 | CCCCCCCc1nc2c3[nH]cnc3[nH]c(=O)n2n1 [II-6] | –
> 10000 | > 330 | Cn1cnc2c1c1nc(-c3ccc(Cl)cc3)nn1c(=O)n2C [II-14] | –
– | 270 | Cc1nnc2c3c(ncn3C)n(C)c(=O)n12 [III-2, 3,6,9-trimethyl-9H-1,2,4-triazolo[3,4-i]purin-5(6H)-one] | –
9910 | > 330 | O=c1[nH]c2nc(-c3ccccc3)[nH]c2c2ncnn12 [II-25] | xanthine oxidase inhibition activity compared with allopurinol [1]: higher xanthine oxidase inhibition activity than allopurinol
2400 | > 300 | Cc1ccc(-c2nc3c4[nH]cnc4[nH]c(=O)n3n2)cc1 [II-7] | –
– | 264 | Cn1cnc2c1c1nncn1c(=O)n2C [III-1, 6,9-dimethyl-9H-1,2,4-triazolo[3,4-i]purin-5(6H)-one] | –
> 10000 | > 330 | O=c1[nH]c2nc(-c3ccccc3)[nH]c2c2nc(-c3ccc([N+](=O)[O-])cc3)nn12 [II-31] | –

— patent publication US20210347778A1, “HYDRAZINOPURINE COMPOUND AND TRIAZOLOPURINE COMPOUND FOR INHIBITING XANTHINE OXIDASE” (TERA STONE CO., LTD, priority 2018, published 2021)
